Assay results: paper PMC11601558, “SLC6A19 inhibition facilitates urinary neutral amino acid excretion and lowers plasma phenylalanine” (JCI Insight, 2024)
Where “and” joins values, the source holds several entries; their conditions need not be identical. Equal entries are not always repeated.

Test system: Pah^enu2 mice
Assay: Urine amino acid excretion in Pah^enu2 mice after JN-170
Assay type: in vivo, mouse
Set-up: urine Gln excretion / urine Phe excretion: unit not given here
Conditions: for 12-hour urine Phe excretion (Fig 3c): individual Pah^enu2 mice
Description: Male homozygous BTBR-Pah<enu2>/J (Pah^enu2) aged 10–13 weeks were purchased from Jackson Laboratory (no. 002232). Immediately before dosing, each animal’s bladder was manually emptied and a plasma sample was drawn. Animals were dosed by oral gavage with vehicle (10% DMSO, 20% 2-hydroxypropyl-β-cyclodextrin [Sigma-Aldrich]) followed by a 1-week washout prior to dosing with JN-170 at doses ranging from 50 to 250 mg/kg. Following dosing with vehicle or JN-170, animals were individually placed in metabolic cages to collect urine samples. After collection of each urine sample, cages were rinsed with ultra-pure water to recover residual analytes. Blood samples were collected predose as well as 1, 3, 8, 12, and 24 hours after dosing with vehicle or JN-170 into tubes with EDTA as a […], and plasma was separated by centrifuging samples at 2,200g for 5 minutes at 4°C. Throughout the study, mice had access to food and water ad libitum. Plasma and urine samples were stored at –80°C until processing.Ten-week-old male WT C57Bl/6J animals (Si Bei Fu Laboratory Animal Technology Co. Ltd.) were dosed either with vehicle or 50–250 mg/kg JN-170 by oral gavage and blood and urine samples were collected as described. All animals had unrestricted access to food and water during the study; C57Bl/6J were kept on rodent maintenance diet from Beijing Keao Xieli, Pah^enu2 mice were kept on Teklad diet no. T.2018.
Urine and cage-wash samples were vortexed and centrifuged at 3,700g for 5 minutes to remove any solid precipitate. Neat samples and samples diluted 1:10 in water were further diluted 1:10 in crash solution (75% acetonitrile 25% methanol, 0.1% formic acid, 5 mM heavy labeled amino acids) to precipitate proteins. Samples were centrifuged at 3,700g for 5 minutes before the supernatant was transferred into an injection plate. Urine amino acid analysis was carried out using a quadrupole time of flight (QToF) LC-mass spectrometry (QToF-LC-MS) bioanalytical method. A standard curve of 1 mM down to 0.06 μM was used as the calibration curve to which samples were quantified. The amino acid concentrations were calculated with a 1/×2 linear regression over a concentration range of 60 nM to 1,000 μM of the individual amino acids. An Agilent QToF 6545 was operated in an accurate mass full scan range of 100–1,700 m/z positive ions formed by electrospray ionization with a normal phase HILIC chromatographic method. An Agilent InfinityLab Poroshell 120 HILIC-Z, 2.1 × 150 mm, 2.7 μm was used as the analytical column with 10 mM Ammonium Acetate in 0.1% FA as mobile phase A and 10 mM Ammonium Acetate in 95% ACN, 0.1% FA as mobile phase B. At a flow rate of 0.25 mL/min, the binary gradient increased from an initial 100% phase B to 90% phase B over 3 minutes. After 1.5 minutes, the gradient ramped to 80% mobile phase B. At 5.6 minutes into the gradient, mobile phase B ramped from 60% to 0% and held for 2 minutes before returning to initial conditions at 7.5 minutes. The gradient was stopped at 10 minutes.Total urine amino acid amounts were calculated by multiplying urine amino acid concentrations by the urine volume and adding the amount of amino acid recovered in the cage wash, which was calculated by multiplying the cage wash amino acid concentration by the cage wash volume.

[1] = Fig S3b, Pahenu2 mice, individual animals
[2] = Pah^enu2 mice, 0–3 hours after 200 mg/kg

N#Cc1ccc(-c2noc([C@]3(C(F)(F)F)CCN(C(=O)NCCC4(N)CC4)C3)n2)cc1 [JN-170]
urinary excretion of Phe, Pah^enu2 vs WT mice (0–3 hours after 200 mg/kg): approximately 60 fold | change in 12 hour urine Arg excretion (Fig 3b) (50 mg/kg vs vehicle): 0.3802 log FC | change in 12 hour urine Gln excretion (Fig 3b) (50 mg/kg vs vehicle): 1.423 log FC | change in 12 hour urine Glu excretion (Fig 3b) (50 mg/kg vs vehicle): 0.4771 log FC | change in 12 hour urine His excretion (Fig 3b) (50 mg/kg vs vehicle): 1.279 log FC | change in 12 hour urine Lys excretion (Fig 3b) (50 mg/kg vs vehicle): 0.2248 log FC | change in 12 hour urine Met excretion (Fig 3b) (50 mg/kg vs vehicle): 0.6756 log FC | change in 12 hour urine Phe excretion (Fig 3b) (50 mg/kg vs vehicle): 1.34 log FC | change in 12 hour urine Pro excretion (Fig 3b) (50 mg/kg vs vehicle): -0.2483 log FC | change in 12 hour urine Ser excretion (Fig 3b) (50 mg/kg vs vehicle): 0.9904 log FC | change in 12 hour urine Thr excretion (Fig 3b) (50 mg/kg vs vehicle): 1.084 log FC | change in 12 hour urine Trp excretion (Fig 3b) (50 mg/kg vs vehicle): 1.144 log FC | change in 12 hour urine Tyr excretion (Fig 3b) (50 mg/kg vs vehicle): 1.331 log FC | 12-hour urine Phe excretion (Fig 3c) (50 mg/kg): 2329 µg and 2669 µg and 1215 µg and 2142 µg and 1931 µg and 2386 µg | change in 12 hour urine Arg excretion (Fig 3b) (100 mg/kg vs vehicle): 0.4771 log FC | change in 12 hour urine Gln excretion (Fig 3b) (100 mg/kg vs vehicle): 2.5092 log FC | change in 12 hour urine Glu excretion (Fig 3b) (100 mg/kg vs vehicle): 0.7782 log FC | change in 12 hour urine His excretion (Fig 3b) (100 mg/kg vs vehicle): 2.097 log FC | change in 12 hour urine Lys excretion (Fig 3b) (100 mg/kg vs vehicle): 0.583 log FC | change in 12 hour urine Met excretion (Fig 3b) (100 mg/kg vs vehicle): 1.421 log FC | change in 12 hour urine Phe excretion (Fig 3b) (100 mg/kg vs vehicle): 1.508 log FC | change in 12 hour urine Pro excretion (Fig 3b) (100 mg/kg vs vehicle): 0.2706 log FC | change in 12 hour urine Ser excretion (Fig 3b) (100 mg/kg vs vehicle): 1.62 log FC | change in 12 hour urine Thr excretion (Fig 3b) (100 mg/kg vs vehicle): 1.727 log FC | change in 12 hour urine Trp excretion (Fig 3b) (100 mg/kg vs vehicle): 1.687 log FC | change in 12 hour urine Tyr excretion (Fig 3b) (100 mg/kg vs vehicle): 1.929 log FC | 12-hour urine Phe excretion (Fig 3c) (100 mg/kg): 3398 µg and 3162 µg and 4227 µg and 2980 µg and 2439 µg and 2425 µg | 12-hour urinary Phe excretion, mean ± SD (200 mg/kg): 4,170 ± 1505 μg | change in 12 hour urine Arg excretion (Fig 3b) (200 mg/kg vs vehicle): 0.4472 log FC | change in 12 hour urine Gln excretion (Fig 3b) (200 mg/kg vs vehicle): 2.528 log FC | change in 12 hour urine Glu excretion (Fig 3b) (200 mg/kg vs vehicle): 0.7559 log FC | change in 12 hour urine His excretion (Fig 3b) (200 mg/kg vs vehicle): 2.089 log FC | change in 12 hour urine Lys excretion (Fig 3b) (200 mg/kg vs vehicle): 0.6206 log FC | change in 12 hour urine Met excretion (Fig 3b) (200 mg/kg vs vehicle): 1.349 log FC | change in 12 hour urine Phe excretion (Fig 3b) (200 mg/kg vs vehicle): 1.635 log FC | change in 12 hour urine Pro excretion (Fig 3b) (200 mg/kg vs vehicle): 0.1887 log FC | change in 12 hour urine Ser excretion (Fig 3b) (200 mg/kg vs vehicle): 1.594 log FC | change in 12 hour urine Thr excretion (Fig 3b) (200 mg/kg vs vehicle): 1.712 log FC | change in 12 hour urine Trp excretion (Fig 3b) (200 mg/kg vs vehicle): 1.74 log FC | change in 12 hour urine Tyr excretion (Fig 3b) (200 mg/kg vs vehicle): 1.783 log FC | 12-hour urine Phe excretion (Fig 3c) (200 mg/kg): 3871 µg and 5519 µg and 1571 µg and 5260 µg and 3572 µg and 5225 µg | change in 12 hour urine Arg excretion (Fig 3b) (250 mg/kg vs vehicle): 0.6435 log FC | change in 12 hour urine Gln excretion (Fig 3b) (250 mg/kg vs vehicle): 2.17 log FC | change in 12 hour urine Glu excretion (Fig 3b) (250 mg/kg vs vehicle): 0.7482 log FC | change in 12 hour urine His excretion (Fig 3b) (250 mg/kg vs vehicle): 1.862 log FC | change in 12 hour urine Lys excretion (Fig 3b) (250 mg/kg vs vehicle): 0.7733 log FC | change in 12 hour urine Met excretion (Fig 3b) (250 mg/kg vs vehicle): 1.454 log FC | change in 12 hour urine Phe excretion (Fig 3b) (250 mg/kg vs vehicle): 1.613 log FC | change in 12 hour urine Pro excretion (Fig 3b) (250 mg/kg vs vehicle): 0.0877 log FC | change in 12 hour urine Ser excretion (Fig 3b) (250 mg/kg vs vehicle): 1.762 log FC | change in 12 hour urine Thr excretion (Fig 3b) (250 mg/kg vs vehicle): 1.809 log FC | change in 12 hour urine Trp excretion (Fig 3b) (250 mg/kg vs vehicle): 1.96 log FC | change in 12 hour urine Tyr excretion (Fig 3b) (250 mg/kg vs vehicle): 1.972 log FC | 12-hour urine Phe excretion (Fig 3c) (250 mg/kg): 2655 µg and 3486 µg and 5073 µg and 6377 µg and 3651 µg and 2501 µg | urine Gln excretion [1]: 800 and 1688 and 2419 and 1193 and 1615 | urine Phe excretion [1]: 1730 and 2424 and 3033 and 1556 and 1834 | glutamine excreted in urine, mean ± SD [2]: 1,543 ± 606 μg | urinary excretion of Phe, mean ± SD [2]: 2,115 ± 608 μg | increase in urinary Phe excretion (≥ 200 mg/kg, 12-hour urine, vs vehicle): > 40 fold
